{"source": "patent US20090082304A1", "about": "“Methods of Treating Hematological Malignancies with Nucleoside Analog Drugs” (NORTHWESTERN UNIVERSITY, priority 2004, published 2009)", "key": {"STAT proteins": {"system": "STAT proteins", "test": "Phosphorylation status of STAT proteins", "type": "cell-based"}, "GSK-3β": {"system": "GSK-3β", "test": "Immunoblot of phospho-GSK-3β in MM.1 S cells", "type": "cell-based", "settings": "10 μM", "procedure": "(§1) 5×10^6 were cells treated with 10 μM 8-NH2-Ado for the indicated times and harvested. Cell pellets were washed with cold phosphate-buffered saline (PBS; 8.1 g NaCl, 1.14 g Na2HPO4, 0.22 g KCl, and 0.25 g/L KH2PO4) and incubated with lysis buffer (50 mM HEPES, 150 mM NaCl, 1.5 mM MgCl2, 1 mM EDTA pH 8.0, 100 mM NaFI, 10 mM Na Pyrophosphate, 500 μM PMSF, 0.5% Triton X-100, 10% glycerol) at 4° C. for one hour. Lysates were centrifuged at 4° C. for 1 minute at 9000×g, and the supernatants were collected and stored at −20° C. Protein concentration was determined by Bio-Rad protein assay (BioRad Laboratories, Hercules, Calif.). Protein, at a concentration of 30 μg, was mixed with sample buffer (125 mM Tris, pH 6.8, 4% SDS, 20% glycerol, 100 mM Dithiothreitol (DTT), and 0.05% bromophenol blue), and fractionated on a pre-cast 8-16% Tris-Glycine gel (Invitrogen/Novex, Carlsbad, Calif.). Proteins were then transferred to a Polyvinylidene Fluoride (PVDF) membrane (Immobilon-P, Millipore, Bedford, Mass.): Following protein transfer, membranes were blocked with 5% non-fat milk in PBS-T (PBS with 0.1% Tween), incubated with the primary antibody overnight at 4° C. and subsequently with horseradish peroxidase linked secondary antibody (Amersham, Arlington Heights, Ill.). […]"}, "JNK": {"system": "JNK", "test": "Immunoblot of phospho-JNK in MM.1 S cells", "type": "cell-based", "settings": "10 μM, 0-6 hours", "procedure": "as §1"}, "MM.1 S cells": {"system": "MM.1 S cells", "test": "Cell cycle analysis by flow cytometry (subG1 fraction)", "type": "cell-based", "settings": "10 μM, up to 4 hours", "procedure": "MM1 S cells were incubated with 10 μM 8-NH2-adenosine 0.5, 1, 2, 4 or 24 hours. To determine the distribution of cells within the cell cycle, I×10^6 MM. I S cells were pelleted (500×g for 5 minutes at 4° C.), and washed twice in ice-cold PBS, fixed in ice-cold 70% ethanol, and stored at 4° C. until analyzed. Before analysis by flow cytometry, the fixed cells were pelleted, washed in PBS, and resuspended in ice-cold flow buffer (PBS containing 0.5% Tween 20, 15 μg/mL propidium iodide, and 5 μg/mL DNase-free RNase). The stained cells were analyzed using an Epics Profile II flow cytometer (Coulter Electronics, Inc., Hialeah, Fla.). FIG. 2 provides the results of this experiment. To ascertain whether the changes in phosphorylation levels of these key signaling molecules is a direct result of cell death, parallel cultures were assessed for cellular viability by cell cycle analysis. Cells undergoing apoptosis have a reduced DNA content caused by cleavage and loss of small DNA fragments. Therefore, apoptotic cells are identified as those cells in the subG1 fraction of the cell cycle."}, "FKHRL1": {"system": "FKHRL1", "test": "Immunoblot of phospho-FKHRL1 in MM.1 S cells", "type": "cell-based", "settings": "10 μM", "procedure": "as §1"}, "PKC-8": {"system": "PKC-8", "test": "Phosphorylation status of PKC-8", "type": "cell-based"}, "Akt kinase": {"system": "Akt kinase", "test": "Immunoblot of phospho-Akt in MM.1 S cells", "type": "cell-based", "settings": "10 μM", "procedure": "5×10^6 were cells treated with 10 μM 8-NH2-Ado for the indicated times and harvested. Cell pellets were washed with cold phosphate-buffered saline (PBS; 8.1 g NaCl, 1.14 g Na2HPO4, 0.22 g KCl, and 0.25 g/L KH2PO4) and incubated with lysis buffer (50 mM HEPES, 150 mM NaCl, 1.5 mM MgCl2, 1 mM EDTA pH 8.0, 100 mM NaFI, 10 mM Na Pyrophosphate, 500 μM PMSF, 0.5% Triton X-100, 10% glycerol) at 4° C. for one hour. Lysates were centrifuged at 4° C. for 1 minute at 9000×g, and the supernatants were collected and stored at −20° C. Protein concentration was determined by Bio-Rad protein assay (BioRad Laboratories, Hercules, Calif.). Protein, at a concentration of 30 μg, was mixed with sample buffer (125 mM Tris, pH 6.8, 4% SDS, 20% glycerol, 100 mM Dithiothreitol (DTT), and 0.05% bromophenol blue), and fractionated on a pre-cast 8-16% Tris-Glycine gel (Invitrogen/Novex, Carlsbad, Calif.). Proteins were then transferred to a Polyvinylidene Fluoride (PVDF) membrane (Immobilon-P, Millipore, Bedford, Mass.): Following protein transfer, membranes were blocked with 5% non-fat milk in PBS-T (PBS with 0.1% Tween), incubated with the primary antibody overnight at 4° C. and subsequently with horseradish peroxidase linked secondary antibody (Amersham, Arlington Heights, Ill.). Blots were developed using ECL Plus Chemiluminescent Western Blotting Detection reagent (Amersham, Arlington Heights, Ill.) and the signal was visualized with X-ray film (Hyperfilm, Amersham, Arlington Heights, Ill.). For reprobing purposes, blots were stripped using Restore Western Blot Stripping Buffer from Pierce Biotechnology (Rockford, Ill.). Phospho-MKK3/6 (Ser189/207), phospho-p38 (Thr180/Tyr182), phospho-ATF-2 (Thr69/71), phospho-c-Raf (Ser259), phospho-MEK1/2 (Ser217/221), total MEK1/2, phospho-ERK1/2 (Thr202/Tyr204), total ERK1/2, phospho-p90RSK (Ser380), total RSK, phospho-PDK1 (Ser241), total PDKI, phospho-PTEN (Ser380), total PTEN, phospho-Akt (Ser473), total Akt, phospho-GSK-3β (Ser9), total GSK-3β, phospho-FKHRLI (Thr32)/-FKHR (Thr24), phospho-FKHR (Ser256) primary antibodies were obtained from Cell Signaling Technology (Beverly, Mass.). Total MKK3, total MKK6, total p38, total ATF-2, total c-Raf, total FKHR, total FKHRLI, phospho-JNK and total JNK were purchased from Santa Cruz Biotechnology (Santa Cruz, Calif.). Caspase 3, caspase 9, and PARP antibodies were obtained from Pharmingen (San Diego, Calif.) and anti-MKP1 from Upstate (Lake Placid, N.Y.). Anti-caspase 8 mouse serum was a generous gift of Dr. Marcus Peter (University of Chicago).\nMM.1 S cells were exposed to 10 μM 8-NH2-Ado for 0, 0.5, 1, 2, 4 and 6 hours, after which cells were lysed as previously (Example 2). 30 μg of protein was separated by gel electrophoresis, transferred to PVDF membrane, and probed with phosphorylation-specific antibodies to MKK3/6, p38 MAPK, ATF-2, MEK1/2, ERK1/2, p90RSK, JNK1, PDK1, Akt, FKHRL1 and GSK-3β.\nMM. I S cells were treated with 10 μM 8-chloro-adenosine for 0, 0.5, 1, 2, 4 or 6 hours or 10 μM of cytarabine, fludarabine, gemcitabine or 8-amino-adenosine for 4 hours. Cells were lysed as previously described and 30 μg of protein was separated by gel electrophoresis, transferred to PVDF membrane, and probed with phospho-p38 MAPK (Thr180/Tyr182) antibody.\nMM.1 S cells were grown in dextrose-free media and treated with 2 μM Antimycin A, 5 mM 2-DOG, and varying concentrations of dextrose for 90 minutes. Cellular ATP levels were determined using triplicate samples in a luciferase based assay and are expressed here as a percentage of untreated control."}, "MM cells": {"system": "MM cells", "settings": "cited from earlier work"}}}
{"smiles": "Nc1ncnc2c1nc(N)n2[C@@H]1O[C@H](CO)[C@@H](O)[C@H]1O", "note": "[8-NH2-Ado, 8-amino-adenosine]", "values": [{"measurement": "phosphorylation status of the STAT proteins", "setting": "STAT proteins", "result": "unaltered"}, {"measurement": "Phospho-OSK-3p levels", "setting": "GSK-3β; by 2 hours", "result": "diminish"}, {"measurement": "Phospho-OSK-3p levels", "setting": "GSK-3β; by 6 hours", "result": "negligible"}, {"measurement": "JNK phosphorylation", "setting": "JNK", "result": "unaffected"}, {"measurement": "subG1 fraction versus untreated cells", "setting": "MM.1 S cells", "result": "no differences"}, {"measurement": "FKHRLI phosphorylation", "setting": "FKHRL1; at 4 and 6 hours", "result": "no appreciable phosphorylation"}, {"measurement": "FKHRLI phosphorylation", "setting": "FKHRL1; by 2 hours", "result": "decreases dramatically"}, {"measurement": "phosphorylation status of PKC-8", "setting": "PKC-8", "result": "unaltered"}, {"measurement": "phosphorylation of Akt", "setting": "Akt kinase; 4 hours, data not shown", "result": "dramatic loss of phosphorylation"}, {"measurement": "Phospho-Akt levels", "setting": "Akt kinase; by 2 hours", "result": "decrease significantly"}, {"measurement": "Phospho-Akt levels", "setting": "Akt kinase; eventually (after 2 hours)", "result": "decline further to negligible levels"}, {"measurement": "cytotoxicity", "setting": "MM cells", "result": "affected by the cytotoxic ability"}]}
